Test results: patent US20090087440A1, “Methods for Treating Cancer” (SCHERING CORPORATION, priority 2001, published 2009)
“Also recorded” adds a separate entry of the source.

What was measured:
[1] = tested on: C26-6CK tumor-infiltrating dendritic cells; test: IL-12 p70 and TNFα ELISA in supernatants of activated C26-6CK TIDC (Example II); format: cell-based, mouse
C26 tumor = test: Therapeutic effect in the C26 tumor model (Example VI); format: in vivo, BALB/c mice
Excerpt: Control antibody was purified GL113 antibody.

[2] = tested on: C26-6CK tumor-infiltrating dendritic cells; test: Mixed leukocyte reaction with activated C26-6CK TIDC (Example III); format: cell-based, mouse; conditions: overnight activation, 5 days with allogeneic T cells
C26-6CK tumor [3] = test: Therapeutic effect in the C26-6CK tumor model (Example V)
Description: • 1×10^5 C26-6CK tumor cells were implanted s.c. at Day 0 in groups of seven 8 week-old female BALB/c mice and treated as follow: • 10 μg of CpG 1668 were injected peri- (when tumor too small) or intratumorally at Day 7, 14, and 21. • 250 μg anti-IL10R purified antibody were injected intraperitoneally twice a week starting at Day 7 (stop Day 24).
(§1) Tumor development was assessed three times a week by palpation and tumors measured using a caliper with tumor volume=I^2×L×0.4, I being the small diameter and L the large diameter. Mice were sacrificed when tumors exceeded 1500 mm^3 or for humane criteria.

B16F0 melanoma tumor = test: Therapeutic effect in the B16F0 melanoma tumor model (Example VII)
Description: • 5×10^4 B16F0 tumor cells were implanted s.c. at Day 0 in groups of seven 8 week-old female C57BL/6 mice and treated as follow: • 5 μg of CpG 1668 were injected intra-tumorally at Day 7, 14, and 21. • 250 μg anti-IL10R purified antibody were injected intraperitoneally at Day 7, 14, and 21. Control antibody was purified GL113 antibody.
as §1

C26-6CK tumor [4] = test: Therapeutic effect of CpG 1668+indomethacin in the C26-6CK tumor model (Example X); format: in vivo, BALB/c mice; conditions: C26-6CK s.c.; 5 μg CpG 1668 intra-tumorally Day 7, 14, 21; indomethacin 5 μg/ml in drinking water day 5 to 28
Bone marrow-derived DC = test: Activation of bone marrow-derived DC cultured with C26 tumor supernatant (Example IX); format: cell-based, mouse; conditions: 10% v/v supernatant, indomethacin 1 μg/ml during supernatant preparation, anti-IL10R 10 μg/ml
Description: Bone marrow-derived DCs were obtained by culture of bone marrow progenitors with GM-CSF and TNFα for 5 days in the presence or absence of 10% v/v of a supernatant from C26 tumors. To prepare tumor supernatant, 0.5 cm C26 tumors grown subcutaneously in BALB/c mice were excised and minced, then cultured for 48 hours in 10 ml DMEM. The resulting supernatant was filtered at 0.2 μm and frozen before use. This supernatant contained 0.25 ng/ml IL-10 and 50 ng/ml PGE2, as determined by specific ELISA (R&D Systems). In order to inhibit PGE2 synthesis in the supernanant, the inhibitor of cyclo-oxygenase indomethacin (Sigma) was added at 1 μg/ml during the 48 h culture.
After 5 days, bone-marrow DC were activated with different combinations of optimal doses of LPS, IFNγ and anti-CD40 antibody in the presence or absence of 10 μg/ml anti-IL10R antibody. The activation of DC was measured by their expression of the co-stimulatory molecules CD40 and CD86 by FACS as well as by the production of IL-12 as detected by intra-cellular staining.

[5] = tested on: C26-6CK tumor-infiltrating dendritic cells; test: Activation of C26-6CK tumor-infiltrating DC with LPS, IFNγ and anti-CD40, compared with bone marrow-derived DC (Example I); format: cell-based, mouse

Row | Molecule | IL-12 p70 production in culture supernatants (ELISA) ([1]; C26-6CK TIDC, GM-CSF 10 ng/ml, 24 h, CpG 1668 5 μg/ml, anti-IL10R 10 μg/ml) | activating tumor-infiltrating dendritic cells ([1]; Examples II and III) | overall anti-tumor effect (C26 tumor) | MLR stimulatory capacity of tumor-infiltrating DC (thymidine incorporation) [2] | mice that did not develop a tumor (C26-6CK tumor [3]; C26-6CK s.c., 10 μg CpG 1668 peri- or intratumorally Day 7, 14, 21) | mean volume of tumors versus control group (C26-6CK tumor [3]; C26-6CK s.c., after three weeks) | overall anti-tumor effect (C26-6CK tumor [3]; C26-6CK tumor model) | overall anti-tumor effect (B16F0 melanoma tumor) | mice that did not develop tumor (C26-6CK tumor [4]) | relief of the inhibition of DC activation by C26 tumor supernatant (CD40, CD86, IL-12 expression) (Bone marrow-derived DC) | response of tumor-infiltrating DC to stimulation (co-stimulatory molecules, MLR, IL-12 and TNFα) [5]
1 | CpG 1668: TLR-9 ligand in the mouse, sequence TCC-ATG-ACG-TTC-CTG-ATG-CT (SEQ ID NO: 5), MWG Biotech (TCCATGACGTTCCTGATGCT; DNA, all phosphorothioate, methylation of C not given here) | does not induce | marginal effect | marginal effect | minimally enhanced | 1/7 | smaller than in the control group | minor effect; also recorded: marginal effect | marginal effect | 1/7 |  | 
2 | COc1ccc2c(c1)c(CC(=O)O)c(C)n2C(=O)c1ccc(Cl)cc1 [indomethacin] |  |  |  |  |  |  |  |  | 1/7 | relieved partially | 
3 | IFNγ: cytokine IFNγ (R&D Systems) |  |  |  |  |  |  |  |  |  |  | did not respond
